In patent US20260374766A1, “METHODS FOR TREATING CANCER” (Antares Therapeutics, Inc., priority 2022, published 2026):
pIC50, pKd: −log10 of the molar value.

How the values were obtained:
H1299 p53 R273H = assay: Cell Proliferation Assay (CellTiter-Glo, CTG), H1299 p53 R273H (NClH1299-inducible p53 R273H); format: cell-based; conditions: Homo sapiens, NCI-H1299, 120 h, CellTiter-Glo, H1299 p53 R273H, 5 days
Outline: (§1)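 Tet-One inducible p53 Y220C or R273H constructs were stably introduced into NCI-H1299 by lentiviral transduction; NUGC3 was used as is. Cells (250-500 per well) were exposed to compound for 5 days, then CellTiter-Glo was added for 10 min at room temperature and IC50 was calculated from luminescence.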

[1] = biological target: T1, p53 Y220C mutant protein (amino acid residues 94-293) (Homo sapiens, UniProt P04637, Y220C); assay: Surface Plasmon Resonance (SPR) assay, Kd_kinetic; format: binding; conditions: SPR, kinetic KD, p53 Y220C; read-out: SPR P53 Y220C KD kinetic
T1 construct: p53 Y220C mutant protein (amino acid residues 94-293)
Outline: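 Kinetic dissociation constants derived by 1:1 model fit of SPR data acquired at 16 or 20 °C, pH 7.5 Tris/NaCl running buffer with 1% DMSO.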

[2] = biological target: T1, p53 Y220C mutant protein (amino acid residues 94-293); assay: Thermal Shift Assay (TSA), dTM; format: binding; conditions: thermal shift; for ΔTm at 100 µM: 100 uM compound, read-out: TSA P53 Y220C dTM (100 uM)
Outline: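 Sypro Orange melt (30→50 °C, 0.03 °C/s) with TM taken from a Boltzmann two-state fit. Protein (residues 94-293) at 5 μM was pre-incubated 3 h at 20 °C with compound at 10 μM or 100 μM in pH 7.4 HEPES/NaCl buffer containing 0.01% Pluronic F-127 and 1% DMSO.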

H1299 p53 Y220C = assay: Cell Proliferation Assay (CellTiter-Glo, CTG), H1299 p53 Y220C (NClH1299-inducible p53 Y220C); format: cell-based; conditions: Homo sapiens, NCI-H1299, 120 h, CellTiter-Glo, H1299 p53 Y220C, 5 days
Outline: as §1

p53 Y220C = p53 Y220C (Homo sapiens, UniProt P04637, Y220C); assay: Luciferase Reporter Assay (Luc), p53 response element, NClH1299 cells with inducible p53 Y220C; format: cell-based; conditions: luciferase reporter, NClH1299 inducible p53 Y220C, 6 hour; for Emax: 10 uM tool compound as positive control; for AC50: read-out: Luc P53 Y220C AC50
Outline: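 Cells were seeded at 5,000 per well and induced with 0.5 ug/mL doxycycline for 24 hours, then exposed to compound for 6 hours. One-Glo reagent was added, plates shaken 5 minutes at room temperature, and luminescence read immediately.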

NUGC3 p53 Y220C = assay: Cell Proliferation Assay (CellTiter-Glo, CTG), NUGC3 p53 Y220C; format: cell-based; conditions: Homo sapiens, NUGC-3, 120 h, CellTiter-Glo, NUGC3 p53 Y220C, 5 days
Outline: as §1

Row | pIC50 (H1299 p53 R273H) | pKd [1] | ΔTm at 100 µM [2] [°C] | pIC50 (H1299 p53 Y220C) | Emax (p53 Y220C) [%] | AC50 (p53 Y220C) [nM] | ΔTm at 10 µM ([2]; 10 uM compound, read-out: TSA P53 Y220C dTM (10 uM)) [°C] | SMILES | pIC50 (NUGC3 p53 Y220C)
1 | ≤ 5.00 | 7.00 to 8.00 | 1 to 5 | < 5.52 | < 70 | > 3000 |  | CNc1cc(NC2CCN(C)CC2)c2nc(C#CCNc3ccc(S(C)(=O)=O)cc3OC)c(CC(F)(F)F)n2c1 [Example 33, 2-{3-[(4-methanesulfonyl-2-methoxyphenyl)amino]prop-1-yn-1-yl}-N6-methyl-N8-(1-methylpiperidin-4-yl)-3-(2,2,2-trifluoroethyl) imidazo[1,2-a]pyridine-6,8-diamine] | < 5.52
2 | ≤ 5.00 | > 8.00 | 5 to 10 | 5.52 to 5.82 | 70 to 80 | > 3000 |  | CNC(=O)c1ccc(NCC#Cc2nc3c(N[C@@H]4CCN(C)C[C@@H]4F)cccn3c2CC(F)(F)F)cc1 [Example 35, 4-{[3-(8-{[(3S,4R)-3-fluoro-1-methylpiperidin-4-yl]amino}-3-(2,2,2-trifluoroethyl)imidazo[1,2-a]pyridin-2-yl)prop-2-yn-1-yl]amino}-N-methylbenzamide] | 5.52 to 5.82
3 | ≤ 5.00 | > 8.00 | ≥ 10 | 5.82 to 6.12 | 70 to 80 | 750 to 1500 | 5 to 10 | CNC(=O)c1ccc(NCC#Cc2nc3c(N[C@@H]4CCN(C)C[C@@H]4F)cccn3c2CC(F)(F)F)c(OC)c1 [Example 36, 4-{[3-(8-{[(3S,4R)-3-fluoro-1-methylpiperidin-4-yl]amino}-3-(2,2,2-trifluoroethyl)imidazo[1,2-a]pyridin-2-yl)prop-2-yn-1-yl]amino}3-methoxy-N-methylbenzamide] | 5.82 to 6.12
4 | 5.10 to 5.30 | < 6.00 | 1 to 5 | < 5.52 | < 70 | > 3000 |  | CNC(=O)c1ccc(NCC#Cc2nc3c(NC4CCN(C)CC4)cc(NC(=O)OC(C)(C)C)cn3c2CC(F)(F)F)c(OC)c1 [Example 39, tert-butyl N-[2-(3-{[2-methoxy-4-(methylcarbamoyl)phenyl]amino}prop-1-yn-1-yl)-8-[(1-methylpiperidin-4-yl)amino]-3-(2,2,2-trifluoroethyl)imidazo[1,2-a]pyridin-6-yl]carbamate] | 5.52 to 5.82
5 | ≤ 5.00 | 7.00 to 8.00 | 5 to 10 | < 5.52 | < 70 | > 3000 |  | CNC(=O)c1ccc(NCC#Cc2nc3c(NC4CCN(C)CC4)cc(N)cn3c2CC(F)(F)F)c(OC)c1 [Example 40, 4-[(3-{6-amino-8-[(1-methylpiperidin-4-yl)amino]-3-(2,2,2-trifluoroethyl)imidazo[1,2-a]pyridin-2-yl}prop-2-yn-1-yl)amino]-3-methoxy-N-methylbenzamide] | < 5.52
6 | ≤ 5.00 | 6.00 to 7.00 | 1 to 5 | < 5.52 | < 70 | > 3000 |  | CNC(=O)Nc1cc(NC2CCN(C)CC2)c2nc(C#CCNc3ccc(C(=O)NC)cc3OC)c(CC(F)(F)F)n2c1 [Example 44, 3-methoxy-N-methyl-4-[(3-{6-[(methylcarbamoyl)amino]-8-[(1-methylpiperidin-4-yl)amino]-3-(2,2,2-trifluoroethyl)imidazo[1,2-a]pyridin-2-yl}prop-2-yn-1-yl)amino]benzamide] | < 5.52
7 | ≤ 5.00 | > 8.00 | ≥ 10 | 5.82 to 6.12 | 70 to 80 | 1500 to 3000 |  | COc1cc(C(=O)N(C)C)ccc1NCC#Cc1nc2c(N[C@@H]3CCN(C)C[C@@H]3F)cccn2c1CC(F)(F)F [Example 46, 4-{[3-(8-{[(3S,4R)-3-fluoro-1-methylpiperidin-4-yl]amino}-3-(2,2,2-trifluoroethyl)imidazo[1,2-a]pyridin-2-yl)prop-2-yn-1-yl]amino}-3-methoxy-N,N-dimethylbenzamide] | 5.52 to 5.82
8 | ≤ 5.00 | 7.00 to 8.00 | ≥ 10 | 5.52 to 5.82 | 70 to 80 | > 3000 |  | CCNC(=O)c1ccc(NCC#Cc2nc3c(N[C@@H]4CCN(C)C[C@@H]4F)cccn3c2CC(F)(F)F)c(OC)c1 [Example 47, N-ethyl-4-{[3-(8-{[(3S,4R)-3-fluoro-1-methylpiperidin-4-yl]amino}-3-(2,2,2-trifluoroethyl)imidazo[1,2-a]pyridin-2-yl)prop-2-yn-1-yl]amino}-3-methoxybenzamide] | < 5.52
9 | 5.10 to 5.30 | > 8.00 | ≥ 10 | > 6.12 | 70 to 80 | 750 to 1500 |  | COc1cc(C(=O)NC(C)C)ccc1NCC#Cc1nc2c(N[C@@H]3CCN(C)C[C@@H]3F)cccn2c1CC(F)(F)F [Example 48, 4-{[3-(8-{[(3S,4R)-3-fluoro-1-methylpiperidin-4-yl]amino}-3-(2,2,2-trifluoroethyl)imidazo[1,2-a]pyridin-2-yl)prop-2-yn-1-yl]amino}-N-isopropyl-3-methoxybenzamide] | 5.82 to 6.12
10 | 5.00 to 5.10 | 7.00 to 8.00 | ≥ 10 | 5.82 to 6.12 | 70 to 80 | 750 to 1500 |  | COc1cc(C(=O)NC2CC2)ccc1NCC#Cc1nc2c(N[C@@H]3CCN(C)C[C@@H]3F)cccn2c1CC(F)(F)F [Example 49, N-cyclopropyl-4-{[3-(8-{[(3S,4R)-3-fluoro-1-methylpiperidin-4-yl]amino}-3-(2,2,2-trifluoroethyl)imidazo[1,2-a]pyridin-2-yl)prop-2-yn-1-yl]amino}-3-methoxybenzamide] | 5.82 to 6.12
11 | ≤ 5.00 | 7.00 to 8.00 | ≥ 10 | 5.82 to 6.12 | < 70 | 750 to 1500 |  | COc1cc(C(=O)N2CCCC2)ccc1NCC#Cc1nc2c(N[C@@H]3CCN(C)C[C@@H]3F)cccn2c1CC(F)(F)F [Example 50, (3S,4R)-3-fluoro-N-[2-(3-{[2-methoxy-4-(pyrrolidine-1-carbonyl)phenyl]amino}prop-1-yn-1-yl)-3-(2,2,2-trifluoroethyl)imidazo[1,2-a]pyridin-8-yl]-1-methylpiperidin-4-amine] | 5.82 to 6.12
12 | ≤ 5.00 | 7.00 to 8.00 | 5 to 10 | 5.52 to 5.82 | 70 to 80 | > 3000 |  | CNC(=O)c1ccc(NCC#Cc2nc3c(N[C@@H]4CCN(C)C[C@@H]4F)cccn3c2CC(F)(F)F)cn1 [Example 52, 5-{[3-(8-{[(3S,4R)-3-fluoro-1-methylpiperidin-4-yl]amino}-3-(2,2,2-trifluoroethyl)imidazo[1,2-a]pyridin-2-yl)prop-2-yn-1-yl]amino}-N-methylpyridine-2-carboxamide] | < 5.52
13 | ≤ 5.00 | 7.00 to 8.00 | 5 to 10 | 5.52 to 5.82 | 70 to 80 | > 3000 |  | CNC(=O)c1ccc(NCC#Cc2nc3c(N[C@@H]4CCN(C)C[C@@H]4F)cccn3c2CC(F)(F)F)c(OC(F)(F)F)c1 [Example 53, 4-{[3-(8-{[(3S,4R)-3-fluoro-1-methylpiperidin-4-yl]amino}-3-(2,2,2-trifluoroethyl)imidazo[1,2-a]pyridin-2-yl)prop-2-yn-1-yl]amino}-N-methyl-3-(trifluoromethoxy) benzamide] | 5.52 to 5.82
